logP data for 136 compounds are collected here from the OPERA property sets (Mansouri et al. 2018).

Peptide text beside a SMILES is read from it.

Regarding `OCCOCCOCCN1CCC(=C(c2ccccc2)c2ccccc2)CC1`, the logP stood at 3.78.
Then `CC(C)OC(=O)n1cnc(CC(NC(=O)C2CCC(=O)N2)C(=O)N2CCCC2C(N)=O)c1` (stereo unspecified), with -0.8; and `Cn1cnc([N+](=O)[O-])n1`, with -0.68; and `CCOC(=O)C(=O)Nc1ccccc1`, with 1.48.
To `O=C(O)COc1cccc(-c2ccccc2)c1` belongs 3.18; to `COP(=S)(Oc1cc(Cl)c(Br)cc1Cl)c1ccccc1` (stereo unspecified), 6.31.
With `CCCCCCC1(c2ccncc2)CCC(=O)NC1=O` (stereo unspecified), the logP came out at 2.94.
Then `CCC(=O)OC1(C(=O)CCl)C(C)CC2C3CCC4=CC(=O)C=CC4(C)C3C(O)CC21C` (stereo unspecified), with 3.34.
Then `Brc1cc(Br)cc(Br)c1`, with 4.51.
To `Cc1ccc(S(I)=C(N(C)C)N(C)C)cc1` (stereo unspecified) belongs -0.1; to `CCCCCCNC(=O)c1[nH]nc(C)c1[N+](=O)[O-]`, 2.46; to `Nc1nnco1`, -1.44.
`O=[N+]([O-])c1cccc2cccnc12` registered a logP of 1.4.
To `c1ccc2c(c1)OCCO2` belongs 2.01; to `CN(C)C(N(C)C)=S(I)c1ccccc1F` (stereo unspecified), -0.55.
Then `CCn1c(=O)c2[nH]c(-c3ccccc3)nc2n(CC)c1=O`, with 2.93.
Then `Nc1ccc(Cl)cc1`, with 1.83; and `N#Cc1cccc(N)c1`, with 1.07.
Regarding `Cc1ccc(C)cc1`, the logP was 3.15.
Then `O=C(O)C1c2ccccc2-c2ccccc21`, with 2.8; and `O=[N+]([O-])c1ccc(CCO)cc1`, with 1.12; and `O=C(NO)c1ccccc1`, with 0.26.
Then `CNC(=O)c1ccco1`, with 0.23; and `CC(=O)N[C@H](C(=O)N[C@@H](Cc1ccccc1)C(=O)N[C@@H](C)C(N)=O)C(C)C` (Ac-Val-Phe-Ala-NH2), with 0.06.
Then `CCC(C)c1cc([N+](=O)[O-])cc(C(C)C)c1O` (stereo unspecified), with 4.19.
For the compound `C=CCNC(=O)NCC=C`, the logP was 0.64.
In turn, `Clc1nnnn1-c1ccccc1` displayed a logP of 1.48.
To `CC(=O)Oc1ccccc1C(F)(F)F` belongs 2.59.
To `NCCCN` belongs -1.43; to `CCOC(=O)CNC(=O)C=[N+]=[N-]`, -0.08; to `NC(Cc1c[nH]c2ccccc12)C(=O)O` (racemic), -1.05.
With `FC(F)(F)c1ccc2cccnc2c1`, the logP came to 3.02.
Then `Cc1cnnc2cc(Cl)ccc12`, with 1.98.
With `CC(=O)N[C@@H](Cc1ccccc1)C(=O)NCC(=O)N[C@@H](CC(C)C)C(N)=O`, the log partition coefficient (logP) was 0.6.
On to `Cc1ccc2c(c1)C(=O)C=CC2=O`, for which the logP was determined as 2.1.
To `C[C@]12C[C@H](O)[C@H]3[C@@H](CCC4=CC(=O)CC[C@@]43C)[C@@H]1CC[C@@H]2C(=O)CO` belongs 1.94.
On to `COc1ccc(N)cc1`, for which the logP was found to be 0.95.
To `C=CCCC(C)=O` belongs 1.02; to `Cc1cccc2c(C)cccc12`, 4.38; to `Cc1cc(=O)[nH]o1`, 0.46.
For the compound `CC(C)(O)C(=O)O`, the logP was -0.36.
Then `CCCCCC(C)O` (stereo unspecified), with 2.31.
As to `COc1ccc(C=O)cc1C`, the logP worked out at 2.23.
To `CCC1(C2=CC3CCC(C2)C3)C(=O)NC(=O)NC1=O` (stereo unspecified) belongs 2.53; to `COP(=S)(OC)Oc1ccc([N+](=O)[O-])cc1`, 2.86.
To `CN(C)C(=O)Oc1ccccc1[N+](=O)[O-]` belongs 1.35; to `O=S(Cc1ccccc1)Cc1ccccc1`, 1.99; to `CCCc1ccc(C(=O)OCCN(C)C)cc1`, 3.63.
To `CCn1nnc2ccccc21` belongs 1.58; to `N#Cc1ccnc2ccccc12`, 1.98; to `CC(=O)c1cccc(OC(=O)N(C)C)c1`, 1.18.
In turn, `Clc1cccc(-c2cccc(Cl)c2Cl)c1Cl` registered a logP of 6.18.
Then `CCN1CC(C(O)C(CC2CCCCC2)NC(=O)C(Cc2c[nH]cn2)NC(=O)C(CC(=O)N2CC(OCOCCOC)C(OCOCCOC)C2)Cc2ccccc2)OC1=O` (stereo unspecified), with 1.87; and `CCN(CC)CC(F)(F)F`, with 1.88; and `NCCCCc1cccnc1`, with 0.88.
For the compound `Cn1ccc(=O)n(C)c1=O`, the logP was -0.54.
`OCCO` came in with a logP of -1.36.
Then `Clc1ccc(-c2ccc(Cl)c(Cl)c2Cl)c(Cl)c1Cl`, with 7.31.
To `COc1ccc(Br)cc1-c1nc(N)nc(N)n1` belongs 1.53; to `CCCC1CCCc2ncc(C(=O)OC)c(=O)n21` (stereo unspecified), 1.14.
To `N#CC(C#N)=NNc1ccc(C(=O)CCl)cc1` belongs 2.15; to `CC(=O)OCC1=C(C(=O)O)N2C(=O)[C@@H](NC(=O)Cc3cccs3)[C@H]2SC1`, -0.41; to `OCCBr`, 0.23.
Consider `c1cnc2c(c1)ccc1cccnc12`, for which the logP was found to be 1.78.
To `O=S(=O)(Cc1ccccc1)c1ccccc1` belongs 2.05; to `FC(F)(F)Oc1ccccc1`, 3.17.
To `CC(=NNC(=S)NNC(=S)N(C)C)c1ccccn1` belongs 1.25; to `O=C1OCc2ccccc21`, 0.8; to `Nc1cccc(S(N)(=O)=O)c1`, -0.38.
To `NC(=O)C(Cl)(Cl)Cl` belongs 1.04.
As to `N#CN/C(N)=N/c1ccccc1`, the logP came out at 1.05.
Regarding `Nc1ccccc1F`, the logP stood at 1.26.
Then `CCOP(=S)(OCC)SCCS(=O)(=O)CC`, with 1.87; and `COc1cccc(CNC(=O)C2(O)C(C)CC3C4CCC5=CC(=O)C=CC5(C)C4(F)C(O)CC32C)c1` (stereo unspecified), with 3.27.
Regarding `N#CCc1cccs1`, the logP was 1.26.
Then `C#C[C@]1(O)CC[C@H]2[C@@H]3CCC4=CC(=O)CC[C@]4(C)[C@H]3CC[C@@]21C`, with 3.11; and `COC(=O)[C@H]1[C@H]2C[C@H]3c4[nH]c5ccccc5c4CCN3C[C@H]2CC[C@@H]1O`, with 2.54.
Then `Nc1ccccc1Cl`, with 1.9.
On to `CC(=O)c1ccc(N)cc1`, for which the logP was 0.83.
Then `CCC(=O)Nc1ccccc1`, with 1.61.
Then `O=C(O)CCCn1nnc2ccccc21`, with 0.01.
Then `O=C1c2ccccc2C(=O)N1c1ccccc1`, with 2.4; and `N#CCCN(CCC#N)N=O`, with 0.08.
Compound `O=C(CN1CCCCC1)Nc1ccc(F)cc1` registered a logP of 2.7.
Then `CC[n+]1cccc2ccccc21.[Br-]`, with -2.76; and `CN(C)C(=O)OCc1ccc([N+](=O)[O-])cc1`, with 1.95.
To `Cc1cc(C)c2c(c1)C(c1ccccc1)=NCC(=O)N2` belongs 2.94.
To `C1=CCOC1` belongs 0.46.
For the compound `CC1COC(=O)O1` (stereo unspecified), the logP is -0.41.
`NC(=O)CCCc1ccccn1` yielded a logP of -0.01.
To `Cc1cc(C)c(N(C)C)c(C)c1` belongs 4.41.
Regarding `CCCCCC1=Nc2cc(Cl)c(S(N)(=O)=O)cc2S(=O)(=O)N1`, the logP worked out at 2.01.
To `Cc1ccc(C(=O)O)c(O)c1` belongs 2.99.
To `ICI` belongs 2.3; to `S=C=Nc1ccc(-c2ccccc2)cc1`, 4.66.
Then `CCCCCCCCOc1ccccc1NC(=O)OCCN1CCCCC1`, with 6.36.
For the compound `CCOc1cccc(O)c1`, the logP was determined as 1.98.
To `Nc1ccc(F)c(Cl)c1` belongs 2.06; to `COP(=S)(NC(C)C)Oc1ccc(Cl)cc1Cl` (stereo unspecified), 4.3.
Then `CCOc1ccc(N)cc1`, with 1.24.
To `CCCCCC(C)=O` belongs 1.98; to `CCOC(=O)C(C#N)=Cc1ccccc1`, 2.43.
The compound `COc1ccc([N+](=O)[O-])cn1` returned a logP of 1.55.
Take `Clc1cccc(-c2cc(Cl)ccc2Cl)c1`: the logP came out at 5.76.
To `CS/C(C)=N/OC(=O)N(C)SN(C)C(=O)O/N=C(\C)SC` belongs 1.7; to `CCOc1cc(N)ccc1C(=O)O`, 0.99; to `Clc1ccc(-c2cc(Cl)ccc2Cl)c(Cl)c1`, 6.22.
Compound `CCOP(=S)(OCC)Oc1ccc(Cl)cc1Cl` displayed a logP of 5.14.
In turn, `O=C(Nc1ccccc1)N(c1ccccc1)c1ccccc1` registered a logP of 3.28.
`CNC(=O)Oc1cc(C)ccc1C` came in with a logP of 2.03.
Regarding `O=C(O)c1ccoc1`, the logP worked out at 1.03.
Then `CCc1ccccc1S(I)=C(N(C)C)N(C)C` (stereo unspecified), with 0.32; and `CCN`, with -0.13.
In turn, `CN(N=O)C(N)=O` showed a logP of -0.03.
`COc1ccccc1C(C)=O` had a logP of 1.82.
To `Cc1ccc2cccnc2c1` belongs 2.47; to `O=[N+]([O-])c1cnc(NC(CO)C(O)CO)cn1` (stereo unspecified), -0.89; to `CNc1nc(NC(C)C)nc(SC(F)F)n1`, 3.27.
Regarding `c1ccc(C23CC4CC(CC(C4)C2)C3)cc1`, the logP worked out at 5.55.
Consider `COC(=O)[C@@H]1C2CCC(C[C@@H]1OC(=O)c1ccccc1)N2C` (stereo partly specified), for which the logP was found to be 2.3.
Then `N#Cc1cc(-c2ccccc2)nnc1NCCN1CCOCC1`, with 1.89.
To `CCn1cc(C)c(=O)[nH]c1=O` belongs -0.15; to `NC(=O)Cc1ccccn1`, -0.65; to `O=C(O)CS`, 0.09.
To `CCC(=O)c1ccccc1` belongs 2.19; to `Cn1c(=O)n(C)c2ccccc21`, 1.46; to `CCOP(=O)(OCC)Oc1cc(C)nc(C(C)C)n1`, 2.07.
`CC(=O)Nc1ccc(S(I)=C(N(C)C)N(C)C)cc1` (stereo unspecified): the logP was -1.58.
To `COC(=O)CCCc1ccccc1` belongs 2.77; to `CCOP(=S)(OCC)Oc1ccc(S(C)=O)cc1` (stereo unspecified), 2.23.
Compound `O=C1NC(=O)C(c2cccnc2)N1` (stereo unspecified) showed a logP of -0.95.
On to `CC(=O)C=Cc1ccccc1`, for which the logP stood at 2.07.
Then `CCOC(=O)c1ccccc1N`, with 2.57; and `CCOC(=O)c1ccoc1`, with 1.78.
To `Brc1cccc(Br)c1` belongs 3.75; to `CC(=O)Nc1ccc2[nH]c(C)cc2c1`, 1.21.
